Values quoted from earlier work in patent publication US20200306252A1, “COMPOSITION FOR PREVENTING AND/OR TREATING DEMENTIA” (priority 2019, published 2020).

Tests used:
patients with dementia = conditions: clinical experiments; curcumin alone
β-amyloid = conditions: cellular experiments
neural cells = conditions: cellular experiments

Compound: COc1cc(/C=C/C(=O)CC(=O)/C=C/c2ccc(O)c(OC)c2)ccc1O [curcumin]
- alleviation of the symptoms of patients with dementia (patients with dementia): cannot effectively alleviate the symptoms
- bioavailability: poor
- reducing β-amyloid aggregation (β-amyloid): effective
- protecting neural cells (neural cells): effective
